Laboratory results reported in patent US5965743A, “N-substituted imidazol derivative” (Nippon Soda Co., Ltd., priority 1994, dated 1999).
Read-outs that look alike come from different tables or passages of the source.

How the values were obtained:
cholesterol biosynthesis = experiment: In vivo inhibition test on cholesterol biosynthesis in mice; design: species or system mouse (Crj:ICR-strain); conditions: n = 5, 30 mg/kg oral; for 14C-Cholesterol in serum: control group 3783 (for 1-71), 5694 (for 2-64, 2-71, 2-72); for Inhibition Rate on cholesterol biosynthesis: vs control group
Method: In Vivo Inhibition Test on Cholesterol Biosynthesis
For this test, Crj:ICR-strain male mice aged 7-9 weeks were provided. The mice were fed with a diet containing 2% cholestyramine for 7 to 10 days under reversed lighting condition, namely the mice were placed in dark condition during 7:00 AM to 7:00 PM. Each of the test compounds was dissolved or suspended in either distillated water or 1% aqueous solution of poly(oxyethylene) curing castor oil and was orally administrated to the mice at a dose of 30 mg/kg at 10:30 AM, respectively. After 1 hour following to the administration of the test compound, the mice were intraperitoneally administrated with ^14 C-sodium acetate at a dose of 5 μCi/0.5 ml/mouse, respectively. After 2 hours, blood sampling was performed for each mouse from the abdominal aorta under anesthesia with ether and the blood sampled were placed into plastic test tubes being placed with blood separating agent beforehand to separate the serum, respectively. Each 0.5 ml of the serum was then added with 1 ml of 20% ethanol solution of potassium hydroxide and heated for 3 hours at 75° C. After extracting the unsponified substance with n-hexane, the serum was condensed to the dry hard state and dissolved in small amount of a mixed solution of chloroform and methanol (mixing ratio; 1:2). The resultant chloroform-methanol solution was then spotted on pre-coated silica gel TLC and developed with a mixed solution of benzene and ethyl acetate (mixing ratio; 9:1). The cholesterol spot was then taken out and the radio-activity thereof was measured by using a liquid scintillation counter. Based on the radio-activity measured, the inhibition rate on cholesterol biosynthesis were determined respectively for the compounds of the present invention.

[1] = tested on: Triton WR-1339-Induced Hyperlipemia Mice; experiment: Effect on serum lipid in Triton WR-1339-induced hyperlipemia mice; type: in vivo, mouse (Crj:ICR-strain); conditions: Mus musculus, po (3 x 33.3 mg/kg), average of 10 animals, 24 hours
Method: For this test, Crj:ICR-strain male mice aged 7-9 weeks were provided. […] After 24 hours, blood sampling was performed for each mouse from the abdominal aorta under anesthesia with ether, and the collected blood were placed into plastic test tubes being placed with a blood separating agent beforehand, then after 30 min. or 1 hour, the blood sampled was centrifuged at 10,000 rpm to obtain the serum. Total cholesterol value, HDL cholesterol value and total triglyceride value in the serum were respectively measured by using the measuring kits and automatic biochemical analyser.

[2] = tested on: biosynthesis of cholesterol; experiment: Inhibitory effect on biosynthesis of cholesterol in cell-free biosystem; type: biochemical, rat (SD-strain); conditions: cell-free rat liver enzyme system, 90 min, 37° C., pH 7.4; read-out: 50% Inhibitory Concentration (IC50), cholesterol biosynthesis
Method: Inhibitory Effect on Biosynthesis of Cholesterol in Cell-free Biosystem
(1) Preparation of Enzyme Reaction System
The preparation of the enzymatic system for the biosynthesis of cholesterol in rats was carried out according to the method described in Biochimica et Biophysica Acta, Vol.486, pp 70-81, 1977.
More particularly, SD-strain female rats weighing from […] were fed for 7 to 10 days with a diet containing 2% cholestyramine to enhance their biosynthetic activity of cholesterol. After killed the rats by means of depletion of blood in midnight, the livers thereof were removed and homogenized with a double volume of 0.1 M potassium phosphate buffer solution (pH 7.4) containing 15 mM nicotine amide and 2 mM magnesium chloride by using a loose fitting-type teflon homogenizer. The supernatant obtained by centrifuging the homogenate at 12,000×g for 30 min. was further centrifuged at 105,000×g for 90 min., thereby separating it to the microsome fraction and the supernatant fraction. The supernatant obtained were kept as the fraction resulting in the precipitation in 40-80% ammonium sulfate (hereinafter referred to as "soluble fraction"). Each of the soluble fraction and the microsome fraction were independently adjusted with 0.1 M potassium phosphate buffer solution (pH 7.4) to the volumes of 1 ml/g of liver and 1 ml/3 g of liver, respectively, and were kept and used in the subsequent tests as an enzyme solution for the mixing ratio of 16:1.
(2) Method for Measuring Cholesterol Biosynthesis Activity
Cholesterol biosynthesis activity was measured according to the method described in Biochimica Biophysica Acta, Vol.486, pp 70-81, 1977. 2 μl dimethylsulfoxide solution of the test compound were added to a solution composed of 50 μl of the enzyme solution prepared in (1) described above, 0.1 M potassium phosphate buffer solution (pH 7.4), 1 mM ATP, 5 mM glucose-1-phosphate, 6 mM glutathione, 6 mM magnesium chloride, 0.04 mM coenzyme A, 0.25 mM NAD, 0.25 mM NADP and 1 mM 2-^14 C-sodium acetate (111 MBq./mmol), and the resultant solution was adjusted to the whole volume of 0.2 ml and then allowed to a reaction for 90 min. at 37° C. while shaking. The reaction was then stopped by adding 1 ml of 15% ethanol solution of potassium hydroxide, and the solution was then heated for 1 hour at 75° C. After extracted unsaponificated products with hexane from the solution, the solution was then condensed and dried to the hard state and subsequently dissolved in small volume of a mixture of chloroform and methanol (mixing ratio; 1:2). The resultant chloroform-methanol solution was spotted on a pre-coated silica gel TLC plate, then developed with a developer composed of benzene and ethyl acetate (mixing ratio; 9:1). The cholesterol spot was then taken out from the plate, and the radient activity of the spot was measured by using a liquid scintillation counter. Based on the radio-activity measured, mthe 50% inhibitory concentration (IC50) of the compounds of the present invention were determined.

[3] = read-out: % Change of Serum Lipid to Control Group: HDL Cholesterole
[4] = read-out: % Change of Serum Lipid to Control Group: Total Cholesterole
[5] = read-out: % Change of Serum Lipid to Control Group: Total glyceride

| Compound | 14C-Cholesterol in serum (cholesterol biosynthesis) [dpm/1 ml Serum] | Inhibition Rate on cholesterol biosynthesis (cholesterol biosynthesis) [%] | change in vivo at 100 mg/kg [1, 3] [%] | change in vivo at 100 mg/kg [1, 4] [%] | change in vivo at 100 mg/kg [1, 5] [%] | IC50 [2] [µM] |
| --- | --- | --- | --- | --- | --- | --- |
| O=S(=O)(CCCOc1ccc(Cn2ccnc2)cc1)c1ccccc1 [Compound 2-71] | 73 | 99 | 60 | -30 | -21 |  |
| c1ccc(SCCCOc2ccc(Cn3ccnc3)cc2)cc1 [Compound 2-64, 1-[4-(3-phenylthiopropyloxy)benzyl]imidazole] | 460 | 92 |  |  |  | 6 |
| c1ccc(OCCCOc2ccc(Cn3ccnc3)cc2)cc1 [Compound 2-72] | 3980 | 30 | 28 | -21 | -29 | 6 |
| O=S(=O)(CCCOc1ccc(-n2ccnc2)cc1)c1ccccc1 [Compound 1-71] | 575 | 85 | 82 | -23 | -20 | 2.4 |
